Laboratory results reported in patent US20240360153A1 (Regeneron Pharmaceuticals, Inc., priority 2023, published 2024).

Assays:
[1] = tested on: S6K1 (Thr389) phosphorylation (mTORC1 activity) in wild-type (WT) 293T cells; test: Inhibition of S6K1 (Thr389) phosphorylation in wild-type 293T cells (ELISA); format: cell-based, human; conditions: for IC50: Homo sapiens, HEK-293T, 2 h, wild-type 293T cells, 2 hours treatment; for fold lower potency compared with RAD001 (by IC50) / extent of inhibition of S6K1 (Thr389) phosphorylation: wild-type cells; for extent of inhibition of S6K1 (Thr389) phosphorylation: with increasing concentrations
Protocol: (§1) Treatment of wild-type (WT) and FKBP12 knock-out 293T cells with RAD001 (everolimus) and test compounds. WT and FKBP12 knock-out 293T cells were cultured in Dulbecco's modified Eagle's medium (Gibco #11971-025) supplemented with 10% fetal bovine serum (Gibco #26140-079). Cells were plated at a density of 15,000 cells per well in poly-D-Lysine coated 96-well plates (Corning, #354461) and were incubated at 37° C., 5% CO2 for 24 hours until they reached ˜80% confluence. Cells were treated with RAD001 or test compounds reconstituted in dimethyl sulfoxide (DMSO) using a 8-11-point dose range, from 0.001 pM to 10 μM. All treatments were performed in duplicates for 2 hours at 37° C. Cell culture media supplemented with blank dimethyl sulfoxide (DMSO) was used as a negative control for all compounds. Phosphorylated amounts of S6K1 (Thr389) were measured using an ELISA kit (Invitrogen 85-86052-11), following the manufacture's protocol.
(§2) S6K1 is an immediate downstream target of mTORC1 and therefore phosphorylation of S6K1 at Thr389 residue is used to measure mTORC1 activity (PMID: 16968213). Amounts of phosphorylated S6K1 (Thr389) were measured in WT and FKBP12 knock-out 293T cells treated with either RAD001 or Compound 44 (FIGS. 1A and 1B), and Compound 45 (FIGS. 1C and 1D).

[2] = tested on: S6K1 (Thr389) phosphorylation (mTORC1 activity) in FKBP12 knock-out 293T cells; test: Inhibition of S6K1 (Thr389) phosphorylation in FKBP12 knock-out 293T cells (ELISA); format: cell-based, human; conditions: for inhibition of S6K1 (Thr389) phosphorylation in the absence of FKBP12 (in words) / inhibition at 10 µM: FKBP12 knock-out cells; for selectivity for FKBP12 compared with RAD001 (in words): wild-type versus FKBP12 knock-out cells; for inhibition at 10 µM: Homo sapiens, HEK-293T, 10 μM (highest tested concentration)
Excerpt: Example Generation of FKBP 12 knock-out cells. A CRISPR/Cas9 system was used to deliver ribonucleoprotein complexes containing guide RNA sequences that target FKBP12 (ac[…], location 1369062; ccactactcac[…], location 1369181) in HEK293T cells using Lipofectamine CRISPRMAX transfection reagent (Invitrogen CMAX00008). Cell clones were screened by immunoblotting with anti-FKBP-specific antibody (Novus, NB300-508). Single cells that were deficient for FKBP12 protein were selected and cloned.
as §1, §2

[3] = In vitro microsomal metabolic stability, human liver microsomes; format: in vitro ADME; conditions: for Remaining (T = 60 min) / Remaining (T = NCF60 min) / half-life at 1 µM: Human liver microsomes; for Remaining (T = 60 min): with NADPH; for Remaining (T = NCF60 min): without NADPH regenerating system; for Remaining (T = 60 min) / Remaining (T = NCF60 min): 60 min; for CLint scaled at 1 µM / microsomal CLint at 1 µM: human, human liver microsomes; for CLint scaled at 1 µM / microsomal CLint at 1 µM / half-life at 1 µM: pH 7.2; for half-life at 1 µM: 0.5 mg/ml protein, NADPH
Protocol: (§3) Buffers: PBK Buffer: 50 mM potassium phosphate buffer (PPB), pH 7.2, with 3.3 mM Magnesium Chloride.
(§4) TA Intermediate solution: Compound or control (3 μL) diluted from stock solution (10 mM) with 297 μL 90.0% methanol/water. (Conc: 100 μM; 1.0% DMSO, 89.1% MeOH).
(§5) Control cocktail intermediate solution: Each control (3 μL) was diluted with 291 μL 90.0% methanol/water.
(§6) Diluted TA intermediate stock solution and PC control stock were made by transferring 80 μL of 100 μM TA stock solution into new tubes and then adding 720 μL of 1.0% DMSO in 50 mM potassium phosphate buffer (conc. 10 μM; 1.0% DMSO, 8.91% MeOH).
(§7) Preparation of Liver microsomes working solution (1.25×)(final Conc.: 0.5 mg/mL).
(§8) Acetonitrile:methanol (9:1, v/v)(including 200 ng/mL tolbutamide and 200 ng/ml labetalol hydrochloride as internal standards).
(§9) Working solution: Intermediate solution (80 μL) was diluted with 720 μL 1.0% DMSO in 50 mM potassium phosphate buffer (Conc.: 10 μM; 1.0% DMSO, 8.91% MeOH)
(§10) Procedure: Stock solution was added to each of the time point plates. Microsomes solution (360 μL/well), TA/PC (45 μL/well), and NADPH (45 μL/well) min. (Conc: 1.0 μM, 0.10% DMSO, 0.891% MeOH) were added to the incubation plates. To the T60 and NCF60 plate, TA (15 ul/well) and Microsomes (120 ul) were added. To the blank plate, microsome (50 ul/well) with stop solution (150 ul/well) were added. At the end of each time point, 50 ul/well was aliquoted from the incubation plate. The sampling plates were shaken for approximately 10 min. on a shaker and the samples were centrifuged at 4000 rpm for 15 min. Supernatant (120 μL) was transferred for LC/MS/MS.Compounds from Table 3 were incubated at 37° C. with liver microsomes (pooled from multiple donors) at 1 μM in the presence of a NADPH regenerating system at 0.5 mg/ml microsomal protein. Positive controls included testosterone (3A4 substrate), propafenone (2D6) and diclofenac (2C9), which were incubated with microsomes in the presence of an NADPH regenerating system. At time points (0, 5, 10, 20, 30 and 60 minutes), samples were removed and immediately mixed with cold acetonitrile containing the internal standard (IS). Test compounds incubated with microsomes without the NADPH regenerating system for 60 min are also included. A single point for each test condition (n=1) was obtained, and samples were analyzed by LC/MS/MS. Disappearance of the test compound was assessed based on peak area ratios of analyte/IS (no standard curve).

[4] = In vitro microsomal metabolic stability, CD-1 mouse liver microsomes; format: in vitro ADME; conditions: for half-life at 1 µM: CD-1, pH 7.2, 0.5 mg/ml protein, NADPH; for half-life at 1 µM / Remaining (T = 60 min) / Remaining (T = NCF60 min): Mouse liver microsomes; for Remaining (T = 60 min): with NADPH; for Remaining (T = NCF60 min): without NADPH regenerating system; for Remaining (T = 60 min) / Remaining (T = NCF60 min): 60 min
Protocol: as §3, §4, §5, §6, §7, §8, §9, §10

[5] = CD-1, mouse, mouse liver microsomes, pH 7.2

Row | Remaining (T = 60 min) [3] [%] | Remaining (T = NCF60 min) [3] [%] | CLint scaled at 1 µM [3] [mL/min/kg] | microsomal CLint at 1 µM [3] [µL/min/mg] | half-life at 1 µM [3] [h] | microsomal CLint at 1 µM [4, 5] [µL/min/mg] | half-life at 1 µM [4] [h] | Remaining (T = 60 min) [4] [%] | Remaining (T = NCF60 min) [4] [%] | CLint scaled at 1 µM [4, 5] [mL/min/kg] | Compound | IC50 [1] [nM] | fold lower potency compared with RAD001 (by IC50) [1] [fold] | extent of inhibition of S6K1 (Thr389) phosphorylation [1] | inhibition of S6K1 (Thr389) phosphorylation in the absence of FKBP12 (in words) [2] | selectivity for FKBP12 compared with RAD001 (in words) [2] | inhibition at 10 µM [2] [%]
1 | 32 | 107 | 37.8 | 42.1 | 0.55 | < 9.6 | > 2.42 | 101 | 150 | – | CO[C@@H]1C[C@H](C[C@@H](C)[C@@H]2CC[C@H](C)/C=C(\C)[C@@H](O)[C@@H](OC)C(=O)[C@H](C)C[C@H](C)/C=C/C=C/C=C(\C)C(Nc3ccc(Cl)cc3)C[C@@H]3CC[C@@H](C)[C@@](O)(O3)C(=O)C(=O)N3CCCCC3C(=O)O2)CC[C@H]1O (stereo partly drawn) [Compound 48, (3S,6S,7E,9R,10R,12R,14S,15E,17E,19E,23S,26R,27R,34aS)-21-((4-chlorophenyl)amino)-9,27-dihydroxy-3-((R)-1-((1S,3R,4R)-4-hydroxy-3-methoxycyclohexyl)propan-2-yl)-10-methoxy-6,8,12,14,20,26-hexamethyl-5,6,9,10,12,13,14,21,22,23,24,25,26,27,32,33,34,34a-octadecahydro-3H-23,27-epoxypyrido[2,1-c][1]oxa[4]azacyclohentriacontine-1,11,28,29(4H,31H)-tetraone] | 9.8 | 30 | near complete inhibition | did not inhibit S6K1 (Thr389)phosphorylation at any tested concentrations | relatively more selective to FKBP12 compared with RAD001 | –
2 | 55 | 93 | 18 | 20 | 1.16 | 6.4 | 3.62 | 83 | 96 | 25.3 | CO[C@@H]1C[C@H](C[C@@H](C)[C@@H]2CC[C@H](C)/C=C(\C)[C@@H](O)[C@@H](OC)C(=O)[C@H](C)C[C@H](C)/C=C/C=C/C=C(\C)C(Nc3cccc(OC(F)(F)F)c3)C[C@@H]3CC[C@@H](C)[C@@](O)(O3)C(=O)C(=O)N3CCCCC3C(=O)O2)CC[C@H]1O (stereo partly drawn) [Compound 58, (3S,6S,7E,9R,10R,12R,14S,15E,17E,19E,23S,26R,27R,34aS)-9,27-dihydroxy-3-((R)-1-((1S,3R,4R)-4-hydroxy-3-methoxycyclohexyl)propan-2-yl)-10-methoxy-6,8,12,14,20,26-hexamethyl-21-((3-(trifluoromethoxy)phenyl)amino)-5,6,9,10,12,13,14,21,22,23,24,25,26,27,32,33,34,34a-octadecahydro-3H-23,27-epoxypyrido[2,1-c][1]oxa[4]azacyclohentriacontine-1,11,28,29(4H,31H)-tetraone] | 2.94 | 35 | near complete inhibition | inhibited the mTORC1 signaling in a dose dependent manner | relatively not FKBP12 selective | –
3 | – | – | – | – | – | – | – | – | – | – | CO[C@@H]1C[C@H](C[C@@H](C)[C@@H]2CC[C@H](C)/C=C(\C)[C@@H](O)[C@@H](OC)C(=O)[C@H](C)C[C@H](C)/C=C/C=C/C=C(\C)C(Nc3cccc(C#N)c3)C[C@@H]3CC[C@@H](C)[C@@](O)(O3)C(=O)C(=O)N3CCCCC3C(=O)O2)CC[C@H]1O (stereo partly drawn) [Compound 57, 3-(((3S,6S,7E,9R,10R,12R,14S,15E,17E,19E,23S,26R,27R,34aS)-9,27-dihydroxy-3-((R)-1-((1S,3R,4R)-4-hydroxy-3-methoxycyclohexyl)propan-2-yl)-10-methoxy-6,8,12,14,20,26-hexamethyl-1,11,28,29-tetraoxo-1,4,5,6,9,10,11,12,13,14,21,22,23,24,25,26,27,28,29,31,32,33,34,34a-tetracosahydro-3H-23,27-epoxypyrido[2,1-c][1]oxa[4]azacyclohentriacontin-21-yl)amino)benzonitrile] | 3.68 | 44 | near complete inhibition | inhibited the mTORC1 signaling in a dose dependent manner | relatively not FKBP12 selective | –
4 | – | – | – | – | – | – | – | – | – | – | CO[C@@H]1C[C@H](C[C@@H](C)[C@@H]2CC[C@H](C)/C=C(\C)[C@@H](O)[C@@H](OC)C(=O)[C@H](C)C[C@H](C)/C=C/C=C/C=C(\C)C(NS(=O)(=O)c3ccccc3)C[C@@H]3CC[C@@H](C)[C@@](O)(O3)C(=O)C(=O)N3CCCC[C@H]3C(=O)O2)CC[C@H]1O (stereo partly shown) [Compound 16] | – | ~28 | complete inhibition | comparable to that of RAD001 | – | ~70
5 | – | – | – | – | – | – | – | – | – | – | CO[C@@H]1C[C@H](C[C@@H](C)[C@@H]2CC[C@H](C)/C=C(\C)[C@@H](O)[C@@H](OC)C(=O)[C@H](C)C[C@H](C)/C=C/C=C/C=C(\C)C(N(C)c3ccccc3)C[C@@H]3CC[C@@H](C)[C@@](O)(O3)C(=O)C(=O)N3CCCCC3C(=O)O2)CC[C@H]1O (stereo partly drawn) [Compound 63, (3S,6S,7E,9R,10R,12R,14S,15E,17E,19E,23S,26R,27R,34aS)-9,27-dihydroxy-3-((R)-1-((1S,3R,4R)-4-hydroxy-3-methoxycyclohexyl)propan-2-yl)-10-methoxy-6,8,12,14,20,26-hexamethyl-21-(methyl(phenyl)amino)-5,6,9,10,12,13,14,21,22,23,24,25,26,27,32,33,34,34a-octadecahydro-3H-23,27-epoxypyrido[2,1-c][1]oxa[4]azacyclohentriacontine-1,11,28,29(4H,31H)-tetraone] | 2.43 | 10 | near complete inhibition | – | more selective than RAD001 | 17
